Read-outs that look alike come from different tables or passages of the source.
Assays:
[1] = test system: H9c2(2-1) rat cardiomyocytes; test: Growth inhibition of rat cardiomyocytes as a measure of cardiotoxicity; format: cell-based; settings: for Growth inhibition IC50, H9c2(2-1), 24 h: 24 h drug treatment, crystal violet
Description: Biological activity of simple Doxazolidine carbamates. Since the prodrug carbamates were designed to be activated by carboxylesterases CES1 (hCE1) and/or CES2 (hiCE), cell lines of interest were measured for expression of the respective mRNAs using reverse transcription (RT) followed by PCR (polymerase chain reaction). Cancer cell lines investigated included SHP-77 resistant small cell lung, DU-145 prostate, MCF-7 sensitive breast, MCF-7/Adr resistant breast, SK-HEP-1 liver, and Hep G2 liver cells. As a measure of possible cardiotoxicity, H9c2(2-1) rat cardiomyocytes were also investigated. Cardiotoxicity is relevant because the ultimate product of metabolism and subsequent hydrolysis of these carbamates is doxorubicin, which is cardiotoxic. […] Additionally, the rat cardiomyocytes, H9c2(2-1), also express more CES2 than CES1.
Cell growth inhibition experiments initially focused on MCF-7, MCF-7/Adr, SK-HEP-1, and Hep G2 cancer cells as well as rat cardiomyocytes as a measure of cardiotoxicity and Vero cells (green monkey kidney cells) as an additional measure of normal cell toxicity. The butyl and pentyl carbamates inhibited the growth of MCF-7, MCF-7/Adr, and SK-HEP-1 cell lines with a 24 h drug treatment period with some selectivity for cancer cells over cardiomyocytes relative to growth inhibition by Dox as shown in Table 2. […] The relative inactivity of the ethyl carbamate may indicate that a substantial lipophilic interaction is required at the active site of the carboxylesterases to hold the Doxaz substrate.
Biological activity of Doxazolidine carbamates with self-eliminating spacer. […] SHP-77 small cell lung cancer cells were also of interest because they express modest amounts of both enzymes. Inhibition of the growth of cardiomyocytes was used as a measure of cardiotoxicity, and inhibition of the growth of Vero cells, green monkey kidney cells, was again used as another measure of toxicity to normal cells. They also show more activity against the cancer cells that express higher levels of CES1. Of particular note is the higher activity against Hep G2 cells than against SK-HEP-1 cells. […] The low toxicity of pentyl PABC-Doxaz to cardiomyocytes relative to the toxicity of Dox is encouraging and consistent with the low level of expression of CES1 in cardiomyocytes.
A more thorough characterization of the growth inhibition of a variety of cancer cells as well as rat cardiomyocytes by Formula IV (aFK-PABC-Doxaz) was evaluated in comparison with inhibition of growth by Doxaz, Dox and aFK-PABC-Dox. Cells were treated with drug for 3 h and colony growth was measured at 3 to 5 days when cells reached about 80% confluence. The cancer cells included one prostate cancer cell line (DU-145), three related breast cancer cell lines (MCF-7, MCF-7/Adr, and MCF-7 uPA), and one pancreatic cancer cell line (Mia PaCa-2). The breast cancer cell lines represent the multi-drug resistant (MDR) phenotype with MCF-7/Adr cells and a cell line that is transfected with the gene for urokinase plasminogen activator (uPA), the primary enzyme responsible for cleavage of plasminogen to plasmin. Rat cardiomyocytes served as a model for comparison of drug cardiotoxicity. Growth inhibition was also measured with added plasmin. aFK-PABC-Doxaz inhibited the growth of most of the cancer cells 0.5 log or more better than did aFK-PABA-Dox. Although not as dramatic, this differential response paralleled the differential response between Doxaz and Dox which is approximately two logs except for the MDR expressing, MCF-7/Adr cells which show more than three logs differential response. […] Addition of 0.01 unit/mL of plasmin has no effect on the activity of Dox but increases the activity of both aFK-PABC-Doxaz and aFK-PABC-Dox, in some cases by more than a log. Addition of 0.01 unit/mL plasminogen increases the activity of aFK-PABC-Doxaz on average by 0.3 log. […]

DU-145 = test: Growth inhibition of DU-145 prostate cancer cells; format: cell-based; settings: for Cell growth inhibition IC50, DU-145: 24 h drug treatment, crystal violet
Description: (§1) In vitro Activity. […] This cell suspension was dispensed in 200 μL aliquots (1000 cells/well) into the inside wells of 96-well tissue culture plates. Outside wells contained 200 μL of media. […] The medium was replaced with 90 μL of growth medium prior to addition of the drug. Doxaz was dissolved in DMSO at concentrations ranging from 50 μM to 1 mM. […] Serial dilutions (1:3 and 1:10) were made in sterile DMSO to yield seven solutions of decreasing drug concentration at 100× the respective working concentrations. […] Additionally, two lanes were treated with 10 μL of growth medium containing 10% sterile DMSO and one lane was treated with 90 μL of 1.5 M Tris HCl. […]
(§2) SHP-77 small cell lung cancer cells were also of interest because they express modest amounts of both enzymes. Inhibition of the growth of cardiomyocytes was used as a measure of cardiotoxicity, and inhibition of the growth of Vero cells, green monkey kidney cells, was again used as another measure of toxicity to normal cells.
A more thorough characterization of the growth inhibition of a variety of cancer cells as well as rat cardiomyocytes by Formula IV (aFK-PABC-Doxaz) was evaluated in comparison with inhibition of growth by Doxaz, Dox and aFK-PABC-Dox. […] […] The breast cancer cell lines represent the multi-drug resistant (MDR) phenotype with MCF-7/Adr cells and a cell line that is transfected with the gene for urokinase plasminogen activator (uPA), the primary enzyme responsible for cleavage of plasminogen to plasmin. Rat cardiomyocytes served as a model for comparison of drug cardiotoxicity.

Hep G2 = test: Growth inhibition of Hep G2 liver cancer cells; format: cell-based, human; settings: crystal violet; for Growth inhibition IC50, Hep G2, 24 h: 24 h drug treatment
Source text: (§3) Cell growth inhibition experiments initially focused on MCF-7, MCF-7/Adr, SK-HEP-1, and Hep G2 cancer cells as well as rat cardiomyocytes as a measure of cardiotoxicity and Vero cells (green monkey kidney cells) as an additional measure of normal cell toxicity. […]

SK-HEP-1 = test: Growth inhibition of SK-HEP-1 liver cancer cells; format: cell-based, human; settings: crystal violet; for Growth inhibition IC50, SK-HEP-1, 24 h: 24 h drug treatment
Source text: as §3

SHP-77 = test: Growth inhibition of SHP-77 small cell lung cancer cells; format: cell-based; settings: 24 h drug treatment; crystal violet
Source text: as §2

Vero cells = test: Growth inhibition of Vero cells as a measure of normal cell toxicity (MTT); format: cell-based, green monkey; settings: 24 h drug treatment
Source text: (§4) Cell growth inhibition experiments initially focused on MCF-7, MCF-7/Adr, SK-HEP-1, and Hep G2 cancer cells as well as rat cardiomyocytes as a measure of cardiotoxicity and Vero cells (green monkey kidney cells) as an additional measure of normal cell toxicity.
as §2

MCF-7 = test: Growth inhibition of MCF-7 sensitive breast cancer cells (colony formation, crystal violet); format: cell-based, human
Description: as §1, §4
(§5) Activity of plasmin-activated prodrugs.
(§6) A more thorough characterization of the growth inhibition of a variety of cancer cells as well as rat cardiomyocytes by Formula IV (aFK-PABC-Doxaz) was evaluated in comparison with inhibition of growth by Doxaz, Dox and aFK-PABC-Dox. Cells were treated with drug for 3 h and colony growth was measured at 3 to 5 days when cells reached about 80% confluence. […] The breast cancer cell lines represent the multi-drug resistant (MDR) phenotype with MCF-7/Adr cells and a cell line that is transfected with the gene for urokinase plasminogen activator (uPA), the primary enzyme responsible for cleavage of plasminogen to plasmin. Rat cardiomyocytes served as a model for comparison of drug cardiotoxicity.

MCF-7/Adr = test: Growth inhibition of multidrug resistant MCF-7/Adr breast cancer cells (crystal violet); format: cell-based; settings: for Growth inhibition IC50, MCF-7/Adr, 24 h: 24 h drug treatment
Description: as §1, §4, §5, §6

cancer cells [2] = settings: background statement; cited from earlier work
MDA-MB-435 = test: Growth inhibition of MDA-MB-435 breast cancer cells; format: cell-based; settings: 3 h drug treatment, growth at 5 days; read-out: IC50 MDA-MB-435
Description: (§7) In vitro Activity. […] This cell suspension was dispensed in 200 μL aliquots (1000 cells/well) into the inside wells of 96-well tissue culture plates. Outside wells contained 200 μL of media. […] The medium was replaced with 90 μL of growth medium prior to addition of the drug. Doxaz was dissolved in DMSO at concentrations ranging from 50 μM to 1 mM. […] Serial dilutions (1:3 and 1:10) were made in sterile DMSO to yield seven solutions of decreasing drug concentration at 100× the respective working concentrations. […] Additionally, two lanes were treated with 10 μL of growth medium containing 10% sterile DMSO and one lane was treated with 90 μL of 1.5 M Tris HCl. The cells were incubated at 37° C. for 3 h, at which time the drug solutions were replaced with 200 μL of fresh growth medium.
as §5

cancer cells [3] = test: Cancer cell growth inhibition, statements over several or unnamed cell lines; format: cell-based; settings: read-out: Cancer cell growth inhibition IC50 in the presence of plasmin
Description: as §7, §6

Water solubility = format: physicochemical; settings: as di-cation
human plasmin = human plasmin (Homo sapiens, UniProt P00747); test: Plasmin activation of prodrug and release of Doxaz (HPLC); format: biochemical; settings: 37° C.
Sequence of human plasmin (P00747 581-810 limits assumed): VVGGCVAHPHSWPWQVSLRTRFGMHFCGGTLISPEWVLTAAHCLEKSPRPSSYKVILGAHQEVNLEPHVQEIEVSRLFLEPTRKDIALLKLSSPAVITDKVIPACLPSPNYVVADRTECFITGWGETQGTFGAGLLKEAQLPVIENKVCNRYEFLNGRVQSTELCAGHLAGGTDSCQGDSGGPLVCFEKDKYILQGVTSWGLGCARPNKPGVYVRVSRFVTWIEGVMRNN
Sequence of human plasmin (P00747 97-580 partner limits assumed): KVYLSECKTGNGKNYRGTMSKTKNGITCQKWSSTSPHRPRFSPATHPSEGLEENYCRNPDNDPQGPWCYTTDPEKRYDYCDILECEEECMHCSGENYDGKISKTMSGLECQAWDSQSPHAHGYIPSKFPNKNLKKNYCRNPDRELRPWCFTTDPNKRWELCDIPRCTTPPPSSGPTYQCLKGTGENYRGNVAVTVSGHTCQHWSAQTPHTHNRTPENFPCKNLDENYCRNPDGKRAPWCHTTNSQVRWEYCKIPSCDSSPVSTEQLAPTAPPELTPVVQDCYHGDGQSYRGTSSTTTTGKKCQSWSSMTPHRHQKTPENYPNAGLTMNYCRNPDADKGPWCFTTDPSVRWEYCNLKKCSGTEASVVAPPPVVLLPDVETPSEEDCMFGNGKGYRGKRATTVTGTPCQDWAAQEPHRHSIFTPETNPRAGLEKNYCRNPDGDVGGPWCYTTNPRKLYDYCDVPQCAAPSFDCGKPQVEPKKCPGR
Description: Both Formulas IV and V were incubated with 15 μg/ml human plasmin and monitored by HPLC at 37° C. Just 4 min after the addition of plasmin, 20 percent of compound 10 was converted to Doxaz and roughly 50% of that Doxaz had hydrolyzed to Doxorubicin. Within 23 minutes, nearly all of the prodrug was converted to Doxaz and subsequently hydrolyzed to Doxorubicin.

[4] = 24 h drug treatment, crystal violet
[5] = 3 h drug treatment, crystal violet
[6] = Homo sapiens, NCI/ADR-RES, read-out: IC50 MCF-7/Adr

SMILES	Growth inhibition IC50, H9c2(2-1), 24 h [1]	Cell growth inhibition IC50, DU-145 (DU-145)	Growth inhibition IC50, Hep G2, 24 h (Hep G2)	Growth inhibition IC50, SK-HEP-1, 24 h (SK-HEP-1)	Cell growth inhibition IC50, SHP-77 (SHP-77)	Growth inhibition IC50, Vero, 24 h (Vero cells)	Growth inhibition IC50, MCF-7, 24 h (MCF-7; [4])	Growth inhibition IC50, MCF-7/Adr, 24 h (MCF-7/Adr; crystal violet)	IC50 (MCF-7/Adr; [6]) [µM]	further results
CCCCOC(=O)Nc1ccc(COC(=O)N2COC3C(C)OC(OC4CC(O)(C(=O)CO)Cc5c(O)c6c(c(O)c54)C(=O)c4c(OC)cccc4C6=O)CC32)cc1 (stereo not shown) [Butyl PABC-Doxaz]	−7.2 ± 0.2 log of the molar concentration	−6.3 ± 0.3 log of molar concentrations	−7.7 ± 0.03 log of the molar concentration	−5.8 ± 0.04 log of the molar concentration	−7.1 ± 0.1 log of molar concentrations	−6.1 ± 0.08 log of the molar concentration	−4.1 ± 0.3 log of the molar concentration	−5.9 ± 0.06 log of the molar concentration	–	–
COc1cccc2c1C(=O)c1c(O)c3c(c(O)c1C2=O)C[C@@](O)(C(=O)CO)C[C@@H]3O[C@H]1C[C@H](NCNC(=O)c2ccccc2O)[C@H](O)[C@H](C)O1 [DoxSF, doxsaliform, reference compound]	–	–	–	–	–	–	–	–	–	Less active than DoxF in cancer cell growth inhibition (cancer cells [2]): 50 fold; IC50 (MCF-7; 3 h drug treatment, growth at 5 days, read-out: IC50 MCF-7): 0.07 to 0.08 µM; IC50 (MCF-7/Adr; 3 h drug treatment, growth at 5 days, read-out: IC50 MCF-7/Adr): 0.8 to 2 µM; IC50 (MDA-MB-435): 0.05 ± 0.009 µM
CCCCOC(=O)N1COC2C(C)OC(OC3CC(O)(C(=O)CO)Cc4c(O)c5c(c(O)c43)C(=O)c3c(OC)cccc3C5=O)CC21 (stereo not shown) [Doxaz Butyl Carbamate]	−5.8 ± 0.2 log of the molar concentration	−6.4 ± 0.02 log of molar concentrations	−6.7 ± 0.3 log of the molar concentration	−6.4 ± 0.2 log of the molar concentration	−6.6 ± 0.3 log of molar concentrations	−6.3 ± 0.1 log of the molar concentration	−6.1 ± 0.04 log of the molar concentration	−6.2 ± 0.3 log of the molar concentration	–	–
CCOC(=O)N1COC2C(C)OC(OC3CC(O)(C(=O)CO)Cc4c(O)c5c(c(O)c43)C(=O)c3c(OC)cccc3C5=O)CC21 (stereo not shown) [Doxaz Ethyl Carbamate]	–	–	>−6 log of the molar concentration	>−6 log of the molar concentration	–	–	–	>−5 log of the molar concentration	–	Growth inhibition IC50, H9c2(2-1), 3 h ([1]; 3 h drug treatment, MTT): −5.8 ± 0.2 log of the molar concentration; Growth inhibition IC50, Hep G2, 3 h (Hep G2; 3 h drug treatment): >−6 log of the molar concentration; Growth inhibition IC50, SK-HEP-1, 3 h (SK-HEP-1; 3 h drug treatment): >−6 log of the molar concentration; Growth inhibition IC50, MCF-7, 3 h (MCF-7; [5]): >−6 log of the molar concentration; IC50 (MCF-7; 24 h drug treatment, crystal violet, read-out: Growth inhibition IC50, MCF-7, 24 h): > 1 µM; Growth inhibition IC50, MCF-7/Adr, 3 h (MCF-7/Adr; [5]): −5.3 ± 0.04 log of the molar concentration
COc1cccc2c1C(=O)c1c(O)c3c(c(O)c1C2=O)C[C@@](O)(C(=O)CO)C[C@@H]3O[C@H]1C[C@H](N)[C@@H](O)[C@H](C)O1 [Epi, Epidoxorubicin, reference compound]	–	–	–	–	–	–	–	–	> 10	IC50 (DU-145; Homo sapiens, DU-145, read-out: IC50 DU-145): 0.38 ± 0.052 µM; IC50 (MCF-7; Homo sapiens, MCF7, read-out: IC50 MCF-7, 3 h drug treatment, growth at 5 days): 0.2 µM
COc1cccc2c1C(=O)c1c(O)c3c(c(O)c1C2=O)C[C@@](O)(C(=O)CO)C[C@@H]3O[C@H]1C[C@H]2[C@@H](OCN2C(=O)OCc2ccc(NC(=O)OCc3ccc(NC(=O)[C@H](CCCCN)NC(=O)[C@H](Cc4ccccc4)NC(=O)[C@@H](C)N)cc3)cc2)[C@H](C)O1 [Formula V]	–	–	–	–	–	–	–	–	0.1	IC50 (cancer cells [3]): 0.005 µM; IC50 (MCF-7; Homo sapiens, MCF7, 3 h, read-out: IC50 MCF-7 + plasmin): 0.009 µM; IC50 (MCF-7; Homo sapiens, MCF7, read-out: IC50 MCF-7): 0.06 µM; IC50 (MCF-7/Adr; Homo sapiens, NCI/ADR-RES, 3 h, read-out: IC50 MCF-7/Adr + plasmin): 0.01 µM; Water solubility (Water solubility): excellent water solubility; Time until nearly all of the prodrug was converted to Doxaz (human plasmin; 15 μg/ml human plasmin): ≤ 23 min; Prodrug converted to Doxaz (human plasmin; 4 min after addition of 15 μg/ml human plasmin): 20%

From patent US8404650B2, “Methods of treating cancer with doxazolidine and prodrugs thereof” (priority 2005, dated 2013)
